Measurements published in patent publication US20210346329A1, “TCA CYCLE INTERMEDIATES AND METHODS OF USE THEREOF” (IMBRIA PHARMACEUTICALS, INC., priority 2018, published 2021).

Experiment: Percentage recovery of radioactive dose (expired CO2, urine, feces, cage rinse and wipe)
Details: IV 10 mg/kg, Subject 1006
Description: The plasma-time course, routes and rates of excretion, and tissue distribution of radioactivity following a single oral dose of ^14C-labeled citrate or single oral dose of ^14C-labeled succinate were analyzed in rats.
Formulations were prepared on the day prior to dosing.
CD® rats were obtained from Charles River Laboratories. Animals were 9-11 weeks in age at beginning of study.
Animals given intravenous ^14C-succinate were not kept in a fasting state. ^14C-succinate was administered by tail vein injection.
Following oral dosing, the tube and dose site were wiped with gauze, which was collected for subsequent radioanalysis. Following IV dosing, the needle and dose site were wiped with gauze, which was collected for subsequent radioanalysis. The dose site wipe total radioactivity was subtracted from the total dose administered, to determine dose loss, according to SOP ADME.
Urine and feces were collected at 0-24 hours post-dose and stored on wet ice. Expired CO2 was collected at 0-8 hours and 8-24 hours post-dose by drawing air through traps containing 2 N NaOH according to MPI Research SOP. Samples were stored at ambient temperature and weighed. Aliquots were submitted for radioanalysis.
At 24 hours post-dose, cages were rinsed with a 1% trisodium phosphate (TSP) solution and wiped with gauze pads. The final cage rinse samples and cage wipe samples were collected into separate appropriate containers, and the weight of each cage rinse and cage wipe were recorded.
Samples were analyzed for radioactivity by liquid scintillation counting (LSC) for at least 5 minutes or 100,000 cumulative counts. Samples were analyzed in triplicate.

O=C(O)CCC(=O)O [^14C-succinate]
Percentage recovery of radioactive dose (Cage rinse, 0-24 hr): 0.1 % recovery
Percentage recovery of radioactive dose (Cage wipe, 24 hr): 0.0 % recovery
Percentage recovery of radioactive dose (Expired trap 1, 0-8 hr (line r8)): 54.8 % recovery
Percentage recovery of radioactive dose (Expired trap 1, 0-8 hr (line r9)): 4.6 % recovery
Percentage recovery of radioactive dose (Expired trap 1, 0-8 hr (line r10)): 0.4 % recovery
Percentage recovery of radioactive dose (Expired trap 1, 0-8 hr (line r12)): 1.3 % recovery
Percentage recovery of radioactive dose (Expired trap 1, 0-8 hr (line r13)): 0.7 % recovery
Percentage recovery of radioactive dose (Expired trap 1, 0-8 hr (line r14)): 0.3 % recovery
Percentage recovery of radioactive dose (Feces, 0-24 hr): 0.2 % recovery
Percentage recovery of radioactive dose (Subtotal of expired traps (line r11)): 59.8 % recovery
Percentage recovery of radioactive dose (Subtotal of expired traps (line r15)): 2.3 % recovery
Percentage recovery of radioactive dose (Total): 65.265 % recovery
Percentage recovery of radioactive dose (Urine, 0-24 hr): 2.9 % recovery
